In patent US11111245B2, “Derivatives of N-cycloalkyl/heterocycloalkyl-4-(imidazo[1,2-a]pyridine)pyrimidin-2-amine as therapeutic agents” (Aucentra Therapeutics Pty Ltd, priority 2017, dated 2021) one finds Ki, remaining activity and GI50 data, which are given here for 13 molecules.

One assay addresses CDK4/D1 (Homo sapiens, UniProt P11802). The assay is described as follows: ADP Glo Kinase assay CDK4/D1. The following applies: CDK4D1; for Ki: read-out: CDK inhibition, Ki (μM) CDK4D1; for remaining activity at 10 µM: compound at 10 μM, read-out: residual activity (%) at 10 μM CDK4D1. The class given is biochemical. The method in brief: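 Compounds tested at 10 concentrations (10 μM to 0.5 nM, 1:3 steps) against CDK4/D1 or CDK6/D3, RB-CTF substrate, Tris pH 7.5 buffer with MgCl2, DTT and BSA.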
On the technique in general: ADP-Glo first removes unused ATP, then detects ADP through luciferase.

For another assay, the target named is CDK6/D3 (Homo sapiens, UniProt Q00534). Put plainly: ADP Glo Kinase assay CDK6/D3. The class given is biochemical. The following applies: CDK6D3; for remaining activity at 10 µM: compound at 10 μM, read-out: residual activity (%) at 10 μM CDK6D3. Here is the method: Eurofins Pharma Discovery or Reaction Biology Corporation Kinase Profiler services were used to measure inhibition of CDKs and other kinases by radiometric assay. Inhibition of CDK4/D1, CDK6/D3 and CDK9/T1 were also determined in-house using ADP Glo Kinase assays (Promega Corporation, Madison, USA). Briefly, the kinase reaction for CDK4/D1 and CDK6/D3 was performed with kinase reaction buffer ([…] Tris base pH 7.5, 20 mM MgCl2, 0.4 mM DTT), 0.1 mg/ml BSA and RB-CTF substrate (retinoblastoma protein 1 C-terminal fraction). For CDK9/CyclinT1, the kinase reaction was performed with standard assay buffer and Kinase Dilution Buffer and RBER-IRStide substrate. Serial dilutions of 1:3 were prepared for test compounds for 10 concentrations (from 10 μM to 0.5 nM). The kinase reactions were started by addition of ATP, incubated for 40 min at 37° C. and then stopped by adding 10 μL of ADP Glo reagent. After incubation at room temperature in the dark for 40 min, 20 μL of kinase detection reagent was added per well and incubated for 40 min. Luminescence was measured using an EnVision Multilabel plate reader (PerkinElmer, Buckinghamshire, UK). Positive and negative controls were performed in the presence and absence of CDK kinases, respectively. Half-maximal inhibition (IC50) values were calculated using a 4-parameter logistic non-linear regression model with Graphpad prism (Version 6.0). Apparent inhibition constants (Ki) values were calculated from Km (ATP) and IC50 values for the respective kinases.

In the next assay the target is CDK9/T1 (Homo sapiens, UniProt P50750). Put plainly: ADP Glo Kinase assay CDK9/T1. The class given is biochemical. The method in brief: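 ADP Glo luminescence, in-house: CDK4/D1, CDK6/D3 on RB-CTF substrate (Tris pH 7.5, MgCl2, DTT, BSA); CDK9/T1 on RBER-IRStide. Reaction 40 min, 37° C after ATP addition. 10-point 1:3 series, 10 μM to 0.5 nM. IC50 by 4-parameter logistic; Ki derived using ATP Km.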

For assay [1], the target named is T1, CDKs and other kinases (Homo sapiens, UniProt P06493).
T1 construct: other: CDK1B; residual activity (%) at 10 μM CDK1B; compound at 10 μM
Put plainly: Radiometric kinase assay (Eurofins Pharma Discovery or Reaction Biology Corporation Kinase Profiler). The class given is biochemical. Particulars: CDK1B; for Ki: read-out: CDK inhibition, Ki (μM) CDK1B; for remaining activity at 10 µM: compound at 10 μM, read-out: residual activity (%) at 10 μM CDK1B. The method in brief: (§1)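 Other CDKs and further kinases were profiled externally by radiometric assay. In-house ADP Glo assays covered CDK4/D1 and CDK6/D3 (RB-CTF substrate, pH 7.5 Tris buffer with MgCl2, DTT, BSA) and CDK9/T1 (RBER-IRStide substrate), 40 min at 37° C.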

Assay [2] addresses T2, CDKs and other kinases (Homo sapiens, UniProt P24941).
T2 construct: other: CDK2A; residual activity (%) at 10 μM CDK2A; compound at 10 μM
The assay is described as above. The class given is biochemical. The following applies: CDK2A; for Ki: read-out: CDK inhibition, Ki (μM) CDK2A; for remaining activity at 10 µM: compound at 10 μM, read-out: residual activity (%) at 10 μM CDK2A. A digest of the protocol: as §1

The target of assay [3] is T3, CDKs and other kinases (Homo sapiens, UniProt P50613).
T3 construct: other: CDK7H; residual activity (%) at 10 μM CDK7H; compound at 10 μM
The description is as above. The class given is biochemical. The following applies: for remaining activity at 10 µM: compound at 10 μM, read-out: residual activity (%) at 10 μM CDK7H. A digest of the protocol:
as §1

For a further assay, the system named is leukemia cell lines. The assay is described as follows: Resazurin cell viability assay on leukemia cell lines (72 h growth inhibition, GI50). The class given is cell-based. The following applies: Homo sapiens, MV4-11 cells. The method in brief: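 GI50 values from non-linear regression of growth inhibition; read-out was MTT for solid tumour cells, resazurin for leukaemia cells.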
(In general: The colour change of resazurin is a common sign of viable cells or microbes.)

Setting [4] is: CDK9T1, read-out: CDK inhibition, Ki (μM) CDK9T1.
Setting [5] is: CDK7H, read-out: CDK inhibition, Ki (μM) CDK7H.

Each structure is given as a SMILES string. Like-named read-outs stand apart in the source and are kept apart here.

CDK4/D1, sequence (P11802 whole entry): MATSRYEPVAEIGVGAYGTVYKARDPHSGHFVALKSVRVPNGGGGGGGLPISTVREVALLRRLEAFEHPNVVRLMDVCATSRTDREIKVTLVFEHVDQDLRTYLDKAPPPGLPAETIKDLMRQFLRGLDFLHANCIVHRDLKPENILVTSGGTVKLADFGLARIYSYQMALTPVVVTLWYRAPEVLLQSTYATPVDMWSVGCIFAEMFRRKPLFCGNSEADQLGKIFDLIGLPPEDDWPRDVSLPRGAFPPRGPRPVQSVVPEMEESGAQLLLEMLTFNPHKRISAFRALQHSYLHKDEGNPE
CDK4/D1, sequence (P24385 whole entry partner): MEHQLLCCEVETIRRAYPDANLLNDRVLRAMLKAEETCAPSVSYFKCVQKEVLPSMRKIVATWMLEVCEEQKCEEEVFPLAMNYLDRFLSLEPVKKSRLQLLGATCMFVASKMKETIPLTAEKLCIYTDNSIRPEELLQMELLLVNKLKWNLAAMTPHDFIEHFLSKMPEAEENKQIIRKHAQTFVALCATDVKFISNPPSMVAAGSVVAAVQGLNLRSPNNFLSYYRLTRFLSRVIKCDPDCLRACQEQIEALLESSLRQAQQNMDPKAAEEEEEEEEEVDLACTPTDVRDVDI
T3 sequence (P50613 whole entry): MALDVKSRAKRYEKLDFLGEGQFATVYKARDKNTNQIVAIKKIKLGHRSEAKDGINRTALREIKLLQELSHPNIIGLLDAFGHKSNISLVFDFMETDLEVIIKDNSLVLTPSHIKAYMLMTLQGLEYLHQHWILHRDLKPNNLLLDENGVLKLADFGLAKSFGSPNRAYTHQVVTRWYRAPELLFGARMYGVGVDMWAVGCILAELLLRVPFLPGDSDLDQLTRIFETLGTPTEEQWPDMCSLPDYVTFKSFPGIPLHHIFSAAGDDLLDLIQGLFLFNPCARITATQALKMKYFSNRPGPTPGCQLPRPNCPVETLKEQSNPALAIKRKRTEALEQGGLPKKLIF
CDK9/T1, sequence (P50750 whole entry): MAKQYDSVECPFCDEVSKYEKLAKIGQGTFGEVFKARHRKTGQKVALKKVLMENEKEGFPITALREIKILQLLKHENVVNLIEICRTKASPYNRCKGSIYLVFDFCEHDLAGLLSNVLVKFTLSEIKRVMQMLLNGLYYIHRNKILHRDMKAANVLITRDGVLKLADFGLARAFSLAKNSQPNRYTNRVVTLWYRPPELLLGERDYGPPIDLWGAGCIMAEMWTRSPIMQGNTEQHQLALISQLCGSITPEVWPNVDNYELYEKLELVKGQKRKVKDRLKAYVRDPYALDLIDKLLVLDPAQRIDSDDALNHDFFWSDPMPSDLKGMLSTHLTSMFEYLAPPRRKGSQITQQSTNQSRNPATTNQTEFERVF
CDK9/T1, sequence (O60563 whole entry partner): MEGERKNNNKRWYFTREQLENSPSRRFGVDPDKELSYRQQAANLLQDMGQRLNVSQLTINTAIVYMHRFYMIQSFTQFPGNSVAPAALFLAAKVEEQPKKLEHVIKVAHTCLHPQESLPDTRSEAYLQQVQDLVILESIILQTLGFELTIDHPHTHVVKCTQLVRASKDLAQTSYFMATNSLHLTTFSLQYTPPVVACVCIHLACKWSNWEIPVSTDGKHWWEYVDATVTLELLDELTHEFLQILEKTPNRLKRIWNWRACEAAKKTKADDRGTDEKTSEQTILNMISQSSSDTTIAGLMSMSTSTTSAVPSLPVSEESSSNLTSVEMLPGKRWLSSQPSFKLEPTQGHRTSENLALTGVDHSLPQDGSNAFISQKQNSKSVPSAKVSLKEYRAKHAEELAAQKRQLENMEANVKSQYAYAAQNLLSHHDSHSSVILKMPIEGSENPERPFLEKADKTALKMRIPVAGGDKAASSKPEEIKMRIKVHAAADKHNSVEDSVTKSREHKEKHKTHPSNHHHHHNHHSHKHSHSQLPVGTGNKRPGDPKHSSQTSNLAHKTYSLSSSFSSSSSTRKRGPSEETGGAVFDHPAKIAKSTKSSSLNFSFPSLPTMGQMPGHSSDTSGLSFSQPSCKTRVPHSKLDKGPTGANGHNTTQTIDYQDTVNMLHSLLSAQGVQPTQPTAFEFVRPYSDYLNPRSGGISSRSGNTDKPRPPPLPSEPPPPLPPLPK
T1 sequence (P06493 whole entry): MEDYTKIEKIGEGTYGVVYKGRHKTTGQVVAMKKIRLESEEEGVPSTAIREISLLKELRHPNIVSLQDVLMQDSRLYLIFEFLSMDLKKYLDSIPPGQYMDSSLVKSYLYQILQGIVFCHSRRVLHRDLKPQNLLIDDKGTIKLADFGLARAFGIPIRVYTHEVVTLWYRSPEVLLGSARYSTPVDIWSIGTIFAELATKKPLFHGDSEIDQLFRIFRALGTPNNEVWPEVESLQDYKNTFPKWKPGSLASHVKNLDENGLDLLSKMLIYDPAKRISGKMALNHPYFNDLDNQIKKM
CDK6/D3, sequence (Q00534 whole entry): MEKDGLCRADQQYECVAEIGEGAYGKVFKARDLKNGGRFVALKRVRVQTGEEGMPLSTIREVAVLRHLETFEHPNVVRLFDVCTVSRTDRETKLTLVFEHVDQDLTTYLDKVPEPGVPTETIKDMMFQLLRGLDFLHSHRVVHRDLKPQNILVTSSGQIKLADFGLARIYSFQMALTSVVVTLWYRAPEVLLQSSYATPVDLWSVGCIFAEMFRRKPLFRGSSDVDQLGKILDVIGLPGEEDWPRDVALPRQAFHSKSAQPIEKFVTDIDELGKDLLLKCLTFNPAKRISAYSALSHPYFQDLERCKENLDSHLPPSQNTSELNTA
CDK6/D3, sequence (P30281 whole entry partner): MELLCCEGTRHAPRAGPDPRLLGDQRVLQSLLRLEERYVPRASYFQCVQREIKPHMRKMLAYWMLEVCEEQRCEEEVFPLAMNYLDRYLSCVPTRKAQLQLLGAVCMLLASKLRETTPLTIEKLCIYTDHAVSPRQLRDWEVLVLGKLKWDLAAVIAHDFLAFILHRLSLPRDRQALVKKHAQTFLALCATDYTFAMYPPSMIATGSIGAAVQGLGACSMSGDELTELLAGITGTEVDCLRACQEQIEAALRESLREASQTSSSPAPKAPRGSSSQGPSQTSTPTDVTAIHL

`N[C@H]1CC[C@H](Nc2ncc(F)c(-c3cnc4ccccn34)n2)CC1` [Compound 1, (1r,4r)-N^1-(5-Fluoro-4-(imidazo[1,2-a]pyridin-3-yl)pyrimidin-2-yl)cyclohexane-1,4-diamine]: the Ki (commonly a dissociation constant, usually derived from enzyme kinetics or from competition with a known ligand) stood at 0.025 µM on CDK4/D1; 0.006 µM on CDK9/T1 (setting [4]); 0.077 µM on CDKs and other kinases [1]; 0.018 µM at CDKs and other kinases [2]; 0.026 µM at CDKs and other kinases [3] (setting [5]). The remaining activity at 10 µM on CDK6/D3 was 23%. Further, the GI50 (usually the concentration giving 50% growth inhibition) in the assay on leukemia cell lines was found to be 0.046 ± 0.005 µM.
In the case of `N[C@H]1CC[C@H](Nc2ncc(F)c(-c3cnc4ccc(F)cn34)n2)CC1` [Compound 2, (1r,4r)-N^1-(5-Fluoro-4-(6-fluoroimidazo[1,2-a]pyridin-3-yl)pyrimidin-2-yl)cyclohexane-1,4-diamine], the remaining activity at 10 µM on CDK6/D3 amounted to 5%. Also, the Ki on CDK9/T1 (setting [4]) was determined as 0.005 µM; at CDKs and other kinases [1] it was 0.085 µM; at CDKs and other kinases [2] it was 0.012 µM; at CDKs and other kinases [3] (setting [5]) it was 0.034 µM. This molecule showed a GI50 with leukemia cell lines of 0.006 ± 0.001 µM.
For `N[C@H]1CC[C@H](Nc2ncc(F)c(-c3cnc4ccc(C(F)(F)F)cn34)n2)CC1` [Compound 3, (1r,4r)-N^1-(5-Fluoro-4-(6-(trifluoromethyl)imidazo[1,2-a]pyridin-3-yl)pyrimidin-2-yl)cyclohexane-1,4-diamine], the remaining activity at 10 µM came out at 0% on CDK4/D1 and 46% at CDK6/D3. Further, the Ki is 0.006 µM at CDK9/T1 (setting [4]); 0.084 µM at CDKs and other kinases [1]; 0.023 µM at CDKs and other kinases [2]; 0.019 µM on CDKs and other kinases [3] (setting [5]). The molecule further returned a GI50 in the assay on leukemia cell lines below 0.001 µM.
With `Cc1ccc2ncc(-c3nc(N[C@H]4CC[C@H](N)CC4)ncc3F)n2c1` [Compound 4, (1r,4r)-N^1-(5-Fluoro-4-(6-methylimidazo[1,2-a]pyridin-3-yl)pyrimidin-2-yl)cyclohexane-1,4-diamine], the remaining activity at 10 µM at CDK4/D1 was 0%; on CDK6/D3, 2%; on CDKs and other kinases [1] it was 1%; at CDKs and other kinases [2] it was 2%. The Ki on CDK9/T1 (setting [4]) was 0.003 µM. The molecule also gave a GI50 with leukemia cell lines of 0.004 ± 0.001 µM.
Turning to `CS(=O)(=O)N[C@H]1CC[C@H](Nc2ncc(F)c(-c3cnc4ccccn34)n2)CC1` [Compound 16, N-((1r,4r)-4-((5-Fluoro-4-(imidazo[1,2-a]pyridin-3-yl)pyrimidin-2-yl)amino)cyclohexyl)methanesulfonamide], the remaining activity at 10 µM on CDK6/D3 came out at 32%; at CDKs and other kinases [3] (CDK7H), 50%. Moreover, the Ki at CDK9/T1 (setting [4]) came out at 0.029 µM; at CDKs and other kinases [2] it was 0.001 µM. In the assay with leukemia cell lines, this molecule showed a 50% growth inhibitory concentration (GI50) of 0.01 ± 0.001 µM.
On to `N[C@H]1CC[C@H](Nc2ncc(-c3ccccc3)c(-c3cnc4ccc(-c5ccccc5)cn34)n2)CC1` [Compound 80, (1r,4r)-N^1-(5-Phenyl-4-(6-phenylimidazo[1,2-a]pyridin-3-yl)pyrimidin-2-yl)cyclohexane-1,4-diamine], for which the remaining activity at 10 µM was 61% on CDK4/D1 and 54% at CDK6/D3. Further, on CDK9/T1 (setting [4]), the Ki was 0.2 µM. This molecule also showed a 50% growth inhibitory concentration (GI50) in the assay on leukemia cell lines of 0.243 ± 0.053 µM.
For `C[C@]12C[C@]3(C)C[C@](O)(C1)C[C@](Nc1ncc(F)c(-c4cnc5ccc(Nc6cncnc6)cn45)n1)(C2)C3` [Compound 111, (1s,3r,5R,7S)-3-((5-Fluoro-4-(6-(pyrimidin-5-ylamino)imidazo[1,2-a]pyridin-3-yl)pyrimidin-2-yl)amino)-5,7-dimethyladamantan-1-ol], the remaining activity at 10 µM on CDK4/D1 was 29%; on CDK6/D3, 89%; on CDKs and other kinases [1] it was 20%; on CDKs and other kinases [2], 11%; on CDKs and other kinases [3] (CDK7H), 86%. The inhibition constant Ki on CDK9/T1 (setting [4]) was 0.108 µM.
Regarding `Cc1cnc(N[C@H]2CC[C@H](N)CC2)nc1-c1cnc2ccc(Nc3ccncn3)cn12` [Compound 116, (1r,4r)-N^1-(5-Methyl-4-(6-(pyrimidin-4-ylamino)imidazo [1,2-a]pyridin-3-yl)pyrimidin-2-yl)cyclohexane-1,4-diamine], the remaining activity at 10 µM at CDK4/D1 came to 18%; at CDK6/D3, 86%. In addition, the Ki on CDK9/T1 (setting [4]) came out at 0.106 µM. The GI50 in the assay with leukemia cell lines came to 0.885 ± 0.137 µM.
`N[C@H]1CC[C@H](Nc2ncc(Cl)c(-c3cnc4cc(Nc5cncnc5)ccn34)n2)CC1` [Compound 118, (1r,4r)-N^1-(5-Chloro-4-(7-(pyrimidin-5-ylamino)imidazo [1,2-a]pyridin-3-yl)pyrimidin-2-yl)cyclohexane-1,4-diamine]: the figures for the remaining activity at 10 µM on CDK4/D1 and on CDK6/D3 were 0% and 6%, respectively. Besides, the Ki on CDK9/T1 (setting [4]) turned out to be 0.036 µM; at CDKs and other kinases [1], 0.154 µM; at CDKs and other kinases [2], 0.026 µM; at CDKs and other kinases [3] (setting [5]), 0.018 µM.
For the molecule `Cc1cnc(N[C@H]2CC[C@H](N3CC3)CC2)nc1-c1cnc2cc(Nc3cncnc3)ccn12` [Compound 119, 3-(2-(((1r,4r)-4-(Aziridin-1-yl)cyclohexyl)amino)-5-methylpyrimidin-4-yl)-N-(pyrimidin-5-yl)imidazo[1,2-a] pyridin-7-amine], the Ki turned out to be 0.64 µM on CDK4/D1; 0.54 µM at CDK6/D3 (read-out: CDK inhibition, Ki (μM) CDK6D3); 0.004 µM on CDK9/T1; 0.623 µM at CDKs and other kinases [1]; 0.14 µM on CDKs and other kinases [2]; 0.12 µM at CDKs and other kinases [3].
For `Cc1cnc(N[C@H]2CC[C@H](NC(C)C)CC2)nc1-c1cnc2ccc(Nc3cncnc3)cn12` [Compound 121, (1r,4r)-N^1-Isopropyl-N^4-(5-methyl-4-(6-(pyrimidin-5-ylamino)imidazo[1,2-a]pyridin-3-yl)pyrimidin-2-yl) cyclohexane-1,4-diamine], the Ki on CDK4/D1 was 2.21 µM; on CDK9/T1 (setting [4]), 0.032 µM; on CDKs and other kinases [1] it was 0.78 µM; on CDKs and other kinases [2] it was 0.86 µM; at CDKs and other kinases [3] (setting [5]) it was 3.86 µM. Moreover, on CDK6/D3, the remaining activity at 10 µM turned out to be 47%.
Regarding `Cc1cnc(N[C@H]2CC[C@H](N)CC2)nc1-c1cnc2ccc(N(C)c3cccnc3)cn12` [Compound 122, (1r,4r)-N^1-(5-Methyl-4-(6-(methyl(pyridin-3-yl)amino)imidazo[1,2-a]pyridin-3-yl)pyrimidin-2-yl)cyclohexane-1,4-diamine], the values for the remaining activity at 10 µM at CDK4/D1 and on CDK6/D3 were 71% and 44%, respectively. Moreover, the Ki at CDK9/T1 (setting [4]) came to 0.3 µM; on CDKs and other kinases [1], 1.71 µM; at CDKs and other kinases [2], 1.15 µM; on CDKs and other kinases [3] (setting [5]), 1.16 µM.
Regarding `Cc1cnc(N2CCC3(CCNC3=O)CC2)nc1-c1cnc2ccc(-c3ccccc3)cn12` [Compound 125, 8-(5-Methyl-4-(6-phenylimidazo[1,2-a]pyridin-3-yl)pyrimidin-2-yl)-2,8-diazaspiro[4.5]decan-1-one], the remaining activity at 10 µM on CDK4/D1 stood at 100%; at CDK6/D3, 92%. The Ki at CDK9/T1 (setting [4]) is 2.88 µM; at CDKs and other kinases [1], above 5 µM; at CDKs and other kinases [2] it was 3.94 µM; on CDKs and other kinases [3] (setting [5]), 4.56 µM.
